Assay results published in paper PMC4385830, “Group I Paks as therapeutic targets in NF2-deficient meningioma” (Oncotarget, 2015).

Key:
KT21 or Ben-Men cells = assay: Immunoblot of signaling pathways; assay type: cell-based
Procedure: (§1) Protein concentration was determined, and equal amount of total proteins were separated by SDS-PAGE. […] GAPDH and β-actin were used as loading control.

Ben-Men cells = assay: Immunoblot of signaling pathways; assay type: cell-based
Procedure: as §1

Arachnoid cell AC07 = assay: Cell viability, MTT assay; assay type: cell-based; details: NF2+/+, 72 hrs
Procedure: (§2) Cells were plated at 3 × 10^3 cells per well in 96-well plates overnight and treated with various concentrations of Pak inhibitors for 72 hours. Cell viability was measured by MTT assay and the half maximal inhibitory concentration (IC50) was calculated.

Malignant KT21-MG1 = assay: Cell viability, MTT assay; assay type: cell-based; details: NF2−/−; 72 hrs; MTT
Procedure: as §2

Malignant MN525 = assay: Cell viability, MTT assay; assay type: cell-based; details: NF2+/+
Procedure: as §2

Benign MN328 = assay: Cell viability, MTT assay; assay type: cell-based; details: NF2+/+
Procedure: as §2

Benign Ben-Men-1 = assay: Cell viability, MTT assay; assay type: cell-based; details: NF2−/−; 72 hrs; MTT
Procedure: as §2

ABL1 = molecular target: T1, ABL1 (Homo sapiens, UniProt P00519); assay: Kinase selectivity, Z'-LYTE; assay type: biochemical
T1 construct: purchased Invitrogen (Life Technologies) SelectScreen Z'-LYTE
Procedure: (§3) Kinase selectivity was assessed using a commercial service that employs a fluorescence-based, coupled-enzyme assay based on the differential sensitivity of phosphorylated and non-phosphorylated peptides to proteolytic cleavage (Invitrogen, Z'-LYTE®). This assay uses recombinant protein kinases and assay mixed optimized for each particular kinase (http://www.lifetechnologies.com/us/en/home/life-science/drug-discovery/target-and-lead-identification-and-validation /kinasebiology/kinase-activity-assays/z-lyte.html).

CHEK2 (CHK2) = molecular target: T2, CHEK2 (CHK2) (Homo sapiens, UniProt O96017); assay: Kinase selectivity, Z'-LYTE; assay type: biochemical
T2 construct: purchased Invitrogen (Life Technologies) SelectScreen Z'-LYTE
T2 sequence (O96017 whole entry): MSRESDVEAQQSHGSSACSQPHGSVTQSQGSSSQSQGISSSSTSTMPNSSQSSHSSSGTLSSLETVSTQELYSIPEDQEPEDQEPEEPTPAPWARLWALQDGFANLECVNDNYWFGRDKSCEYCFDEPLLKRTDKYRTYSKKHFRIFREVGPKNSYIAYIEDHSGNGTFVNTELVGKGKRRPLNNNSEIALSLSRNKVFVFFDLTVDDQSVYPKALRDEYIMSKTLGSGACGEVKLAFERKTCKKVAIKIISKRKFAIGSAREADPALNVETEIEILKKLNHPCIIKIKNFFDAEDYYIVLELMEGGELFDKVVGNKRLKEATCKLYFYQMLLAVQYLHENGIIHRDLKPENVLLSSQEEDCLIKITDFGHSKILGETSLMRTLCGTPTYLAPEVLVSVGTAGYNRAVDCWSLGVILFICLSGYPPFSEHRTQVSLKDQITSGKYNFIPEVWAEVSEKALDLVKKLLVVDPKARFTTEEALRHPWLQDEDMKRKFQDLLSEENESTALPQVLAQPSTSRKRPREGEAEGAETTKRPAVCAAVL
Procedure: as §3

AKT1 (PKB alpha) = molecular target: T3, AKT1 (PKB alpha) (Homo sapiens, UniProt P31749); assay: Kinase selectivity, Z'-LYTE; assay type: biochemical
T3 construct: purchased Invitrogen (Life Technologies) SelectScreen Z'-LYTE
T3 sequence (P31749 whole entry): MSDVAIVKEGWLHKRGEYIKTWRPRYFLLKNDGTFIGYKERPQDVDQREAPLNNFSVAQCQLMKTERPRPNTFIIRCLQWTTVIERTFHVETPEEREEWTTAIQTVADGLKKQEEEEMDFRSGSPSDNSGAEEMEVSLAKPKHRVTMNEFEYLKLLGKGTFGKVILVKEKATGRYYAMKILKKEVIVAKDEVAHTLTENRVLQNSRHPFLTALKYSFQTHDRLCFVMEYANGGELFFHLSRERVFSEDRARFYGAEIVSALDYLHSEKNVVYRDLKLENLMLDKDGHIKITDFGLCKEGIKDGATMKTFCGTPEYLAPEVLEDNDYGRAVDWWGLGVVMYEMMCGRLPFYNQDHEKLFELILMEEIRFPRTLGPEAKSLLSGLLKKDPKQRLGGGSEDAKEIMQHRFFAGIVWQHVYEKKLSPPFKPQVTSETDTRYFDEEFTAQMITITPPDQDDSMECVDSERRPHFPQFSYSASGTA
Procedure: as §3

SYK = molecular target: T4, SYK (Homo sapiens, UniProt P43405); assay: Kinase selectivity, Z'-LYTE; assay type: biochemical
T4 construct: purchased Invitrogen (Life Technologies) SelectScreen Z'-LYTE
Procedure: as §3

KDR (VEGFR2) = molecular target: T5, KDR (VEGFR2) (Homo sapiens, UniProt P35968); assay: Kinase selectivity, Z'-LYTE; assay type: biochemical
T5 construct: purchased Invitrogen (Life Technologies) SelectScreen Z'-LYTE
T5 sequence (P35968 20-1356): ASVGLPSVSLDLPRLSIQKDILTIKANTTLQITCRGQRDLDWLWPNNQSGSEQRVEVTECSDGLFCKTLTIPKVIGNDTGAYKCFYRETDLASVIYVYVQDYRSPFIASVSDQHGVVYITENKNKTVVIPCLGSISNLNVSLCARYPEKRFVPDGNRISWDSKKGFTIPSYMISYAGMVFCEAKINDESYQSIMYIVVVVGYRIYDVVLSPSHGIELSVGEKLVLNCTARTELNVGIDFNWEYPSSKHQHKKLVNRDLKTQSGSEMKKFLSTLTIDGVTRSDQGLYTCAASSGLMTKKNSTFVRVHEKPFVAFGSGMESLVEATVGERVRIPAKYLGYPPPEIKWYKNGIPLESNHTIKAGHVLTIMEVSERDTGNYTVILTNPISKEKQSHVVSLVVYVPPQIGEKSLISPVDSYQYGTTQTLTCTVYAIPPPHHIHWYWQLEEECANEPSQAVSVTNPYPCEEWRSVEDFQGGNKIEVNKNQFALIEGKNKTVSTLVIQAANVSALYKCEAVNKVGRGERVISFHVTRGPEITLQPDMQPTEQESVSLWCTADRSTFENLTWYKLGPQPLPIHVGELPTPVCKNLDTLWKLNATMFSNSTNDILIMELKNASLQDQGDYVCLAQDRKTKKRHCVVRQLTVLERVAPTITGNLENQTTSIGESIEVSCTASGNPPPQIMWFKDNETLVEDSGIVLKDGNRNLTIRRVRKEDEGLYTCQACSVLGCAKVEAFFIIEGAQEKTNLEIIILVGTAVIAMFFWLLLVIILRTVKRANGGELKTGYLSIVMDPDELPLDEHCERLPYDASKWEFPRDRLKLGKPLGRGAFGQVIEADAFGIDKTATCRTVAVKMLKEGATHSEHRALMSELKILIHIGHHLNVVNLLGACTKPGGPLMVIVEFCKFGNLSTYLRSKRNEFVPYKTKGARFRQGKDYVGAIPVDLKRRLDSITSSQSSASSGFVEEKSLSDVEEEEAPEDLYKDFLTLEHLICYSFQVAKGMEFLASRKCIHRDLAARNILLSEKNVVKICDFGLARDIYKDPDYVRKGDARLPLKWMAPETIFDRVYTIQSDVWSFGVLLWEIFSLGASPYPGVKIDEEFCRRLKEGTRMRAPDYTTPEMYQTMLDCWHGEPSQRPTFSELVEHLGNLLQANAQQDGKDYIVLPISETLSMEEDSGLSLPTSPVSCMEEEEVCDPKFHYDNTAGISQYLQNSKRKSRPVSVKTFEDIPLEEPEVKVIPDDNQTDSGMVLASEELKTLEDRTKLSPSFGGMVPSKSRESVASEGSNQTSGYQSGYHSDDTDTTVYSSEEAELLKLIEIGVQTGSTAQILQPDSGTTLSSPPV
Procedure: as §3

RP88KB1 (p70S6K) = molecular target: T6, RP88KB1 (p70S6K) (Homo sapiens, UniProt P23443); assay: Kinase selectivity, Z'-LYTE; assay type: biochemical
T6 construct: purchased Invitrogen (Life Technologies) SelectScreen Z'-LYTE
T6 sequence (P23443 whole entry): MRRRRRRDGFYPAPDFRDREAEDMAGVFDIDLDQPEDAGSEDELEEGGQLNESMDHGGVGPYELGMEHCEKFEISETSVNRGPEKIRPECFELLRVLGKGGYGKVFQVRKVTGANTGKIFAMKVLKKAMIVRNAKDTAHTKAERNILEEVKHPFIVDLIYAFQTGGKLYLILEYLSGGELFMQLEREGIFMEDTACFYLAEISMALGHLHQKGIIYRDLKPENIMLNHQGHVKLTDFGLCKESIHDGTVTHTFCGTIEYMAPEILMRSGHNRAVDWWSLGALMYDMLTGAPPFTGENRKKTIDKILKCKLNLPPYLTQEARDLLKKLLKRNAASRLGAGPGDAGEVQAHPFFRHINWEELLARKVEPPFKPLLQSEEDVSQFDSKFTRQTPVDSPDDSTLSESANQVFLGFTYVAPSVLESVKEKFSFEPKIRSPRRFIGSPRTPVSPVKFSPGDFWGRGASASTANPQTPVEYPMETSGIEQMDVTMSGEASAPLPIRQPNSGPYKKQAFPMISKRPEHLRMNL
Procedure: as §3

PDK1 Direct = molecular target: T7, PDK1 Direct (Homo sapiens, UniProt O15530); assay: Kinase selectivity, Z'-LYTE; assay type: biochemical
T7 construct: purchased Invitrogen (Life Technologies) SelectScreen Z'-LYTE
T7 sequence (O15530 1-556): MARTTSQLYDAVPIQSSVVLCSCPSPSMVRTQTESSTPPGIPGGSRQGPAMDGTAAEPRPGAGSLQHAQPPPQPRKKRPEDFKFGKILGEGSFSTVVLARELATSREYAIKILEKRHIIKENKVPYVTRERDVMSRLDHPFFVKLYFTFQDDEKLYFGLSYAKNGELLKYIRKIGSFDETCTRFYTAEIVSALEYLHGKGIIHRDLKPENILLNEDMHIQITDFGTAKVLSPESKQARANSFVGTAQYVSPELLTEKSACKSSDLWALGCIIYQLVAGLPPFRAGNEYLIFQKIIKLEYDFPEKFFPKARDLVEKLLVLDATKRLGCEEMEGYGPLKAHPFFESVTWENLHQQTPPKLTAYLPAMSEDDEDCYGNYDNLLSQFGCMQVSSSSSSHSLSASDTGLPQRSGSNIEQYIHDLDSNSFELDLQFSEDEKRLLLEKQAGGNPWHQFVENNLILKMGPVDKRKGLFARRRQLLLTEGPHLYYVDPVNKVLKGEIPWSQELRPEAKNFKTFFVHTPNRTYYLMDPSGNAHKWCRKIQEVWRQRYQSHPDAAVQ
Procedure: as §3

RP88KA8 (RSK2) = molecular target: T8, RP88KA8 (RSK2) (Homo sapiens, UniProt P51812); assay: Kinase selectivity, Z'-LYTE; assay type: biochemical
T8 construct: purchased Invitrogen (Life Technologies) SelectScreen Z'-LYTE
Procedure: as §3

INSR = molecular target: T9, INSR (Homo sapiens, UniProt P06213); assay: Kinase selectivity, Z'-LYTE; assay type: biochemical
T9 construct: purchased Invitrogen (Life Technologies) SelectScreen Z'-LYTE
Procedure: as §3

CSNK1G2 (CK1 gamma 2) = molecular target: T10, CSNK1G2 (CK1 gamma 2) (Homo sapiens, UniProt P78368); assay: Kinase selectivity, Z'-LYTE; assay type: biochemical
T10 construct: purchased Invitrogen (Life Technologies) SelectScreen Z'-LYTE
Procedure: as §3

P1K3CA (p110 gamma) = molecular target: T11, P1K3CA (p110 gamma) (Homo sapiens, UniProt P48736); assay: Kinase selectivity, Z'-LYTE; assay type: biochemical
T11 construct: purchased Invitrogen (Life Technologies) SelectScreen Z'-LYTE
Procedure: as §3

FGFR2 = molecular target: T12, FGFR2 (Homo sapiens, UniProt P21802); assay: Kinase selectivity, Z'-LYTE; assay type: biochemical
T12 construct: purchased Invitrogen (Life Technologies) SelectScreen Z'-LYTE
T12 sequence (P21802 22-821): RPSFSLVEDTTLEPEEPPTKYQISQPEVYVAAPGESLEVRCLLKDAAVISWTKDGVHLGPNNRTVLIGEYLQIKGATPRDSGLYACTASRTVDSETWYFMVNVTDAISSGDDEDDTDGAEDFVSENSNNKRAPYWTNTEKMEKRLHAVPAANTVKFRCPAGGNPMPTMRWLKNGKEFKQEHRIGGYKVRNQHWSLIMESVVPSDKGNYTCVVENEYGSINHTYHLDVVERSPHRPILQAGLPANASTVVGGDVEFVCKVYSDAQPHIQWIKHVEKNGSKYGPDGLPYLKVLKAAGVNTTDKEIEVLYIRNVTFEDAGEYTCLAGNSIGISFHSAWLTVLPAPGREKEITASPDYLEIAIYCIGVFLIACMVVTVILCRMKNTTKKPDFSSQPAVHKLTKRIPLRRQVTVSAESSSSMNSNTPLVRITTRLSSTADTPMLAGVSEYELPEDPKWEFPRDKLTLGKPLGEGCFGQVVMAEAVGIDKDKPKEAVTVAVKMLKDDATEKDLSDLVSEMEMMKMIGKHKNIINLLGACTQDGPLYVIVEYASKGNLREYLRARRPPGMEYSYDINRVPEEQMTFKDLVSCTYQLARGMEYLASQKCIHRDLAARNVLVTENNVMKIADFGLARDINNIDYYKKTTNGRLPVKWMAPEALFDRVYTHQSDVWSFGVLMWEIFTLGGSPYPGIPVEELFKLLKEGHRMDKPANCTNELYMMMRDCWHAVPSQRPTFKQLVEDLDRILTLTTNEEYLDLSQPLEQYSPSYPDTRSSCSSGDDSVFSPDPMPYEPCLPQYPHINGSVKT
Procedure: as §3

PIM1 = molecular target: T13, PIM1 (Homo sapiens, UniProt P11309); assay: Kinase selectivity, Z'-LYTE; assay type: biochemical
T13 construct: purchased Invitrogen (Life Technologies) SelectScreen Z'-LYTE
Procedure: as §3

MAPKAPK2 = molecular target: T14, MAPKAPK2 (Homo sapiens, UniProt P49137); assay: Kinase selectivity, Z'-LYTE; assay type: biochemical
T14 construct: purchased Invitrogen (Life Technologies) SelectScreen Z'-LYTE
T14 sequence (P49137 whole entry): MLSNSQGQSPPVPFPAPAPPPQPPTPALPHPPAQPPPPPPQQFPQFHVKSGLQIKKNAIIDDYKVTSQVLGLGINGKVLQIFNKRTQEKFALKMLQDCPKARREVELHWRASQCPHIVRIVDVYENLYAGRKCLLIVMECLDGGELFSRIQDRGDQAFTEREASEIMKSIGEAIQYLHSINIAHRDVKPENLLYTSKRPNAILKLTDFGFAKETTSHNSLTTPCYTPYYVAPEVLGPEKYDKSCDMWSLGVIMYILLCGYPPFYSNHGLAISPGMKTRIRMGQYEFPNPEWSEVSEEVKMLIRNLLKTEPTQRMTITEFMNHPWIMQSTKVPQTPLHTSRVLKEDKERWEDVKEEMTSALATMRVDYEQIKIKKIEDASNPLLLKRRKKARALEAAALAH
Procedure: as §3

FGFR4 = molecular target: T15, FGFR4 (Homo sapiens, UniProt P22455); assay: Kinase selectivity, Z'-LYTE; assay type: biochemical
T15 construct: purchased Invitrogen (Life Technologies) SelectScreen Z'-LYTE
T15 sequence (P22455 22-802): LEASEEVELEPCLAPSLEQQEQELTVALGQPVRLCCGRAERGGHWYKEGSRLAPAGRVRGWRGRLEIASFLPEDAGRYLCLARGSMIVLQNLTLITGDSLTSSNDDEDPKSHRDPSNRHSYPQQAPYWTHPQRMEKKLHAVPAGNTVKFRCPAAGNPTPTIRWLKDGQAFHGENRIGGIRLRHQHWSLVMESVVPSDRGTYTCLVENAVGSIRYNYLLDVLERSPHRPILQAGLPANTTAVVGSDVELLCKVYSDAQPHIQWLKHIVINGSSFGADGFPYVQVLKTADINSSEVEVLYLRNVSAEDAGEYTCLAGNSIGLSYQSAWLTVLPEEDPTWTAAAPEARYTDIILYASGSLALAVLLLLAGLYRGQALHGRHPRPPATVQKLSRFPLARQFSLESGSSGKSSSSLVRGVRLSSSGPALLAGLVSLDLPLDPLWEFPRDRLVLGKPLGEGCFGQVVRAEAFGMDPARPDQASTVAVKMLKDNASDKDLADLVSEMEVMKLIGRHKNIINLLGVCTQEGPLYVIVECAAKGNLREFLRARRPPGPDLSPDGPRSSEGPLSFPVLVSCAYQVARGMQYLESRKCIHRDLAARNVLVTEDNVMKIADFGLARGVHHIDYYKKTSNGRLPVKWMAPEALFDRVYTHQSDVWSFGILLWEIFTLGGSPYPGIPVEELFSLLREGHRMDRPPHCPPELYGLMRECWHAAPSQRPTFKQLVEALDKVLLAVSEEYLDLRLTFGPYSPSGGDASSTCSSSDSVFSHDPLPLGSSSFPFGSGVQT
Procedure: as §3

FRAP1 (mTOR) = molecular target: T16, FRAP1 (mTOR) (Homo sapiens, UniProt P42345); assay: Kinase selectivity, Z'-LYTE; assay type: biochemical
T16 construct: purchased Invitrogen (Life Technologies) SelectScreen Z'-LYTE
Procedure: as §3

[1] = inhibitors at IC50 concentration

Row | % inhibition of activity (ABL1) | % inhibition of activity (CHEK2 (CHK2)) | % inhibition of activity (AKT1 (PKB alpha)) | % inhibition of activity (SYK) | % inhibition of activity (KDR (VEGFR2)) | % inhibition of activity (RP88KB1 (p70S6K)) | % inhibition of activity (PDK1 Direct) | % inhibition of activity (RP88KA8 (RSK2)) | % inhibition of activity (INSR) | % inhibition of activity (CSNK1G2 (CK1 gamma 2)) | % inhibition of activity (P1K3CA (p110 gamma)) | % inhibition of activity (FGFR2) | % inhibition of activity (PIM1) | Structure (SMILES) | phosphorylation of Pak and Mek1 (at Ser298) (KT21 or Ben-Men cells; [1]) | basal level (expression) of β-catenin (Ben-Men cells) | IC50 (Arachnoid cell AC07) | IC50 (Malignant KT21-MG1) | IC50 (Malignant MN525; 72 hrs) | IC50 (Benign MN328; 72 hrs) | IC50 (Benign Ben-Men-1) | further results
1 | 62% | 99% | 16% | 32% | 20% | 79% | 67% | 100% | 7% | 9% | 0% | 72% | 6% | Cc1nc(Nc2[nH]nc3c2CN(C(=O)N[C@H](CN(C)C)c2ccccc2)C3(C)C)c2sccc2n1 [PF3758309, reference compound] | dramatically inhibited | induction | 1380 nM | 376 nM | 5320 nM | 3420 nM | 29.2 nM | activity of Akt (KT21 or Ben-Men cells; either cell type): did not influence; Erk activity (KT21 or Ben-Men cells; [1]): decrease; IC50 (Malignant MN525; 72 h): 5300 nM; IC50 (Benign MN328; 72 h): 3400 nM; % inhibition of activity (MAPKAPK2): 1%; % inhibition of activity (FGFR4): 11%; % inhibition of activity (FRAP1 (mTOR)): 0%
2 | 18% | 7% | 0% | 4% | 16% | 10% | 0% | 11% | 0% | 3% | 0% | 15% | 0% | CCn1c(=O)c(-c2ccc(-c3cncc(C)n3)cc2Cl)cc2cnc(NCCC3CCN(C)CC3)nc21 [Frax1036] | nearly abolished | induction | 1240 nM | 1990 nM | 3300 nM | 4240 nM | 1890 nM | % inhibition of activity (MAPKAPK2): 0%; % inhibition of activity (FGFR4): 9%; % inhibition of activity (FRAP1 (mTOR)): 0%

Row | Structure (SMILES) | % inhibition of activity (ABL1) | % inhibition of activity (CHEK2 (CHK2)) | % inhibition of activity (AKT1 (PKB alpha)) | % inhibition of activity (SYK) | % inhibition of activity (KDR (VEGFR2)) | % inhibition of activity (RP88KB1 (p70S6K)) | % inhibition of activity (PDK1 Direct) | % inhibition of activity (RP88KA8 (RSK2)) | % inhibition of activity (INSR) | % inhibition of activity (CSNK1G2 (CK1 gamma 2)) | % inhibition of activity (P1K3CA (p110 gamma)) | % inhibition of activity (FGFR2) | % inhibition of activity (PIM1) | phosphorylation of Pak and Mek1 (at Ser298) (KT21 or Ben-Men cells; [1]) | basal level (expression) of β-catenin (Ben-Men cells) | IC50 (Arachnoid cell AC07) | IC50 (Malignant KT21-MG1) | IC50 (Malignant MN525; 72 hrs) | IC50 (Benign MN328; 72 hrs) | IC50 (Benign Ben-Men-1) | further results
3 | CCn1c(=O)c(-c2ccc(-c3noc(C)n3)cc2Cl)cc2cnc(Nc3ccc(C4CCN(C)CC4)cc3)nc21 [Frax716] | 93% | 17% | 1% | 21% | 90% | 1% | 15% | 6% | 14% | 3% | 0% | 60% | −4% | dramatically inhibited | did not impact | 288 nM | 1100 nM | 494 nM | 718 nM | 218 nM | phosphorylation of β-catenin (Ben-Men cells): diminished; % inhibition of activity (MAPKAPK2): 7%; % inhibition of activity (FGFR4): 20%; % inhibition of activity (FRAP1 (mTOR)): 1%
